Source: a melting point compilation (Tetko et al.; mined from patent text by program, amines drawn as free bases though some values may be those of a salt)

SMILES	melting point [°C]
O=C(CN1CCN2c3ccccc3Cn3cccc3C2C1)c1ccc(Cl)cc1 (stereo unspecified)	71 to 74
CCCc1c(OCCCOc2ccc(C(=O)CO)c(OC)c2CCC)ccc2c1OC(C(=O)OC)CC2 (stereo unspecified)	87 to 88
N#Cc1cnn2c3c(c(C(=O)O)nc12)CCN3C1CCCCC1	253 to 255
CC(C)(CC12CC3CC(CC(C3)C1)C2)NC=O	87 to 88
CC(C)c1ccc(N(Cc2ccc(OCc3ccccc3)cc2)C(=O)C2CCCc3ccccc32)cc1 (stereo unspecified)	120 to 121
C=C(Cl)COc1cc(C)nc(NCCCCCC)n1	36 to 37
O=c1oc2c(Br)cccc2cc1S(=O)(=O)Nc1ccc(Br)cc1	206 to 208
O=C(O)Cc1cccc2c(-c3ccc([N+](=O)[O-])cc3)nccc12	252 to 254
Cc1cc(NC(=O)NC(=O)c2ccccc2Cl)cc(C)c1Oc1ccc(Cl)c2c1CCCC2	224 to 226
COc1nc(N)nc(C2CC2)n1	158 to 159
CCCCc1nc2c(N)nc3c(c2n1CC(C)C)NCCC3	143 to 147
O=c1cc(C2CCCCC2)oc2ccc(OCCCCCN3CCC(O)CC3)cc12	85 to 86
CC(CCCc1ccc(F)cc1)c1cc(O)c2c(c1)OC(C)(C)C1=C2CN(CC(=O)NC(N)=O)CC1 (stereo unspecified)	133 to 134
Cc1ccc(-c2cccc(/C=C/C(=O)Nc3ccc(C(O)c4ccccn4)cc3)c2)cc1 (stereo unspecified)	162 to 165
CCOC(=O)C1=C(N(C)C)N=C(C)C(C(=O)OCC)C1c1ccccc1C#N (stereo unspecified)	129
CC(C)(C)c1ccc(O)c(S(=O)(=O)CCl)c1	94 to 95
N#Cc1ccc(OCc2ccncc2)cc1F	132 to 133
Cc1cc(C(=O)N2Cc3cccn3Cc3ccccc32)ccc1C1=CCCCC1C (stereo unspecified)	132 to 133
CCOc1cccc(NCCSCc2[nH]cnc2C)n1	172
C[C@H](NC(=O)c1ccc[nH]1)C(=O)NC(C=O)CC(=O)O (stereo partly specified)	96 to 100
CC(C)Nc1cc(Cl)nc(Cl)n1	69 to 70
CCCc1c(OCCCCCOc2ccccc2OCC(=O)O)ccc2c1OCCC2=O	98 to 99
N#CN1C(=O)[C@H]2CC=CC[C@H]2C1=O	136 to 138
CCN/C(=C1/Sc2ccccc2C1=O)c1ccccc1CC	76 to 77

SMILES	melting point [°C]
CCCOC(=O)c1cc(NC(=O)c2ccccc2O)cc(Br)c1O	198 to 200
COc1c(C)c(C(=O)c2ccc3c(c2)c(=O)n(CC(=O)N(C)C)c(=O)n3C)n2ccccc12	276
CC(=O)NC(CO)C(O)c1ccc(C=Cc2csc3ccccc23)s1 (stereo unspecified)	144 to 145
COc1cc(C(=O)n2c3c(c4ccccc42)CC(C(=O)O)CC3)cc(OC)c1OC (stereo unspecified)	234 to 236
O=C1C(c2ccccc2)N(c2ccc(Oc3ccccc3)cc2)C(=S)N1c1ccccc1 (stereo unspecified)	100
CC(=O)OCC(=O)c1cc(O)c(O)c([N+](=O)[O-])c1	166 to 168
COC(=O)C1Cc2c([nH]c3ccccc23)C(c2ccc(Cl)cc2Cl)N1C(=O)CCl (stereo unspecified)	106 to 109
COc1ccc([N+](=O)[O-])cc1CNC(C)=O	158 to 160
COc1ccc(CC(=O)O)cc1OCCCc1cn(-c2ccc(C(F)(F)F)cn2)nc1C1CCCCC1	117 to 118
CCOC(=O)Cc1ccc(-c2cn3ccccc3n2)cc1	92 to 93
CCOC(=O)c1c(S(N)=O)c2ccccc2n1CC (stereo unspecified)	78 to 80
Cc1cccc(OC2CN(C(N)=O)C2)c1	167 to 168
Cc1ccn2c(C(=O)O)c(C)nc2c1	180 to 183
O=C(O)C(CSc1ncccn1)CS(=O)(=O)c1ccc(-c2ccc(Cl)cc2)cc1 (stereo unspecified)	166 to 168
CNC1=NN(c2cccc(C(F)(F)F)c2)CC1	93.1
O[C@H](COc1cccc2[nH]ccc12)CN1CCC(c2c[nH]c3c(Cl)c(Cl)ccc23)CC1	192 to 197
Nc1ccc(-n2ccn(-c3ccc(OCC(F)(F)C(F)F)cc3)c2=O)cc1	178 to 179
CCC1(C=O)CSc2ccccc2C(c2ccccc2)=N1 (racemic)	98 to 100
Cc1ccccc1Oc1cccc(C=O)c1O	56 to 58
CS(=O)(=O)Nc1ccc(C(=O)c2[nH]c3cc(Cl)ccc3c2CC(=O)O)cc1	207 to 210
CN(C)C(=S)Nc1ccccc1N1CCOCC1	150 to 152
O=C(O)c1ccc(C#CC=Cc2ccccc2-c2ccc(Cl)cc2)cc1	135
O=C(OC(=O)N(c1ccccc1)c1ccccc1)N(c1ccccc1)c1ccccc1	159 to 162
CN(C)C(=O)C=C(N(C(N)=O)c1cc(F)c(C#N)cc1F)C(F)(F)F	198

SMILES	melting point [°C]
Cc1ccc(S(=O)(=O)N2Cc3cnc(C)n3-c3ccc(Cl)cc3C2c2ccccc2F)cc1 (stereo unspecified)	152 to 153
COc1ccc(OCc2ccc(=O)n(Cc3ccc(Cl)cc3)c2)cc1	114
CCCc1c(OCCCS(=O)(=O)c2ccc(C(=O)CCCCC(=O)O)cc2)ccc(C(C)=O)c1O	138 to 140
CC(C)(C)CNc1cc(N2CCNCC2)nc(NCC(C)(C)C)n1	138 to 140
Nc1ncnc2ncn([C@H]3C=C[C@@H](O)C3)c12 (racemic)	195 to 197
COc1ccc2c(-c3ccc(OC(C)=O)cc3)c(-c3ccc(C(F)(F)F)cc3)c(=O)oc2c1	198 to 201
CC1Cc2ccc(O)cc2C1(C)C (stereo unspecified)	66 to 67
CC(C)(C)NC(=O)N1CCN(c2ccc3ncc(Br)n3n2)CC1	199 to 200
Cc1c(NC(=O)CC(C)(C)C)cc2c(c1C)OC(C)(C)C2(O)c1ccc(Br)cc1 (stereo unspecified)	118 to 119
COc1ccc(OC2COc3ccc(OCc4ccccc4)cc3C2=O)cc1 (stereo unspecified)	98 to 100
CCOC(=O)c1cn(-c2ccccn2)nc1C	79 to 80
CCCCC1(N(C)C)CCC(c2[nH]c3ccc(F)cc3c2C)(c2[nH]c3ccccc3c2CCNC(=O)Nc2ccccc2)CC1 (stereo unspecified)	127 to 132
CC1Cc2ccccc2NC1C1=NCCN1 (stereo unspecified)	138 to 139
Cc1ccccc1OCCCc1sc(-n2ccnc2C)nc1-c1ccc(Cl)cc1	112 to 113
COCCNc1nccc(Oc2ccc(NC(=O)c3cc(F)cc(N4CCOCC4)c3)c3ccccc23)n1	95 to 97
CC(=O)OCCCCCCOc1ccccc1C(=O)Nc1ccc(C(=O)N2CCCCc3ccccc32)cc1	145 to 146
CN1CCN(c2nc3ccccc3n2CCOc2ccccc2)CC1	152 to 154
CCCC(CCNC(=O)CC#N)NC(=O)CC#N (stereo unspecified)	141
Cc1ccc(C2CCN(C(=O)CCC(=O)c3ccc4c(c3)CN(C)CC4)CC2)cc1	97 to 99
COC(=O)COC(=O)C(Cl)=Cc1cc(-n2ncc(C(F)(F)F)c(C)c2=O)c(F)cc1Cl	88 to 91
Cc1ccc(OCC(=O)O)c2c3c(C(N)=O)cccc3n(Cc3ccccc3)c12	253 to 254
O=C(O)C(=O)CC(=O)c1cccn1Cc1ccc(-c2ccccc2)cc1	189 to 191
OCc1nccc(N2CCCC2)n1	114 to 116
